One assay deals with T1, human Tie2 (Homo sapiens, UniProt Q02763).
T1 construct: human Tie2 corresponding to amino acids 776-1124 of the intracellular domain was generated by PCR; made in house; host or cells: baculovirus expression system (vector pFastBacGT)
The assay can be described thus: Tie2 kinase inhibition: phosphorylation of GST-PLC (SH2-SH3 fragments) by GST-Tie2, 33P-ATP flashplate. It counts as biochemical. The following applies: read-out: Tie2 % Inhib. 10 μM. The protocol: The coding sequence of human Tie2 corresponding to amino acids 776-1124 of the intracellular domain was generated by PCR using the cDNA isolated from human placenta as model. This sequence was introduced into a baculovirus expression vector pFastBacGT in the form of a GST fusion protein.
The inhibitory effect of the molecules is determined in an assay for phosphorylation of PLC by Tie2 in the presence of GST-Tie2 purified to approximately 80% homogeneity. The substrate is made up of the SH2-SH3 fragments of PLC, the latter being expressed in the form of a GST fusion protein.
The kinase activity of Tie2 is measured in a 20 mM MOPS buffer, pH 7.2, containing 10 mM MgCl2, 10 mM MnCl2, 1 mM DTT and 10 mM of glycerophosphate. A reaction mixture made up of 70 μl of kinase buffer containing 100 ng of GST-Tie2 enzyme per well is placed in a flashplate 96-well plate kept on ice. 10 μl of the molecule to be tested, diluted in DMSO, at a concentration of at most 10% are then added. For a given concentration, each measurement is carried out in quadruplicate. The reaction is initiated by adding 20 μl of solution containing 2 μg of GST-PLC, 2 μM of cold ATP and 1 μCi of ^33P[ATP]. After incubation for 1 hour at 37° C., the reaction is stopped by adding 1 volume (100 μl) of 200 mM EDTA. After removal of the incubation buffer, the wells are washed three times with 300 μl of PBS. The radioactivity is measured on a Wallac MicroBeta 1450.
The inhibition of the Tie2 activity is calculated and expressed as percentage inhibition with respect to the control activity determined in the absence of compound.

Another assay deals with T2, human KDR enzyme (Homo sapiens, UniProt P35968).
T2 construct: The cytoplasmic domain of the human KDR enzyme was cloned in GST fusion form; GST; made in house; host or cells: SF21 insect cells (baculovirus, pFastBac)
T2 sequence (P35968 786-1356 limits assumed): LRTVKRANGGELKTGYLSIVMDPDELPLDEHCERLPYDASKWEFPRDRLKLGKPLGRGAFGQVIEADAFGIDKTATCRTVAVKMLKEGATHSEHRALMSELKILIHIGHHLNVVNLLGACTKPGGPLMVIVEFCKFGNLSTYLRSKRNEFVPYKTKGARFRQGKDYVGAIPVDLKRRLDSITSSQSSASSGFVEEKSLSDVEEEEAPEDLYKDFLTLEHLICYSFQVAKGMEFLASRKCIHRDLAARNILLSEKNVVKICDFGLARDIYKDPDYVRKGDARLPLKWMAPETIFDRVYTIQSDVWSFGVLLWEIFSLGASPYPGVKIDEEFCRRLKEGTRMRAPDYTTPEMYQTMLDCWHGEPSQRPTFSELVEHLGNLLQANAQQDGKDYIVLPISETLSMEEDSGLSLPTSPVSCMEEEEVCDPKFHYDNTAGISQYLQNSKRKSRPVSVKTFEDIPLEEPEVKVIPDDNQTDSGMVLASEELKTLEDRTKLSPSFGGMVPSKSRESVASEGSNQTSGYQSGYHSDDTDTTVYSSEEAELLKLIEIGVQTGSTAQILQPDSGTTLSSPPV
Nature of the assay: KDR kinase inhibition: phosphorylation of PLCγ SH2-SH3 substrate by KDR enzyme, 33P-ATP scintillation plate. It counts as biochemical. As to conditions: read-out: KDR % Inhib. 10 μM. The protocol: The inhibitory effect of the compounds is determined in an assay for phosphorylation of substrate by the KDR enzyme in vitro using a scintillation technique (96-well plate, NEN).
The cytoplasmic domain of the human KDR enzyme was cloned in GST fusion form into the baculovirus expression vector pFastBac. The protein was expressed in SF21 cells and purified to approximately 60% homogeneity. The KDR kinase activity is measured in 20 mM MOPS, 10 mM MgCl2, 10 mM MnCl2, 1 mM DTT, 2.5 mM EGTA, 10 mM b-glycerophosphate, pH=7.2, in the presence of 10 mM MgCl2, 100 μM Na3VO4 and 1 mM NaF. 10 μl of the compound are added to 70 μl of kinase buffer containing 100 ng of KDR enzyme at 4° C. The reaction is initiated by adding 20 μl of solution containing 2 μg of substrate (SH2-SH3 fragment of PLCγ expressed in the form of an GST fusion protein), 2 μCi γ ^33P[ATP] and 2 μM cold ATP. After incubation for 1 hour at 37° C., the reaction is stopped by adding 1 volume (100 μl) of 200 mM EDTA. The incubation buffer is removed and the wells are washed three times with 300 μl of PBS. The radioactivity is measured in each well using a Top Count NXT (Packard) radioactivity counter.
The background noise is determined by measuring the radioactivity in four different wells containing the radioactive ATP and the substrate alone.
A total activity control is measured in four different wells containing all the reagents (γ^33P-[ATP], KDR and PLC-γ substrate) but in the absence of compound.
The inhibition of the KDR activity with the compound of the invention is expressed as percentage inhibition of the control activity determined in the absence of compound.
The compound SU5614 (Calbiochem) (1 μM) is included in each plate as inhibition control.

T1 sequence (Q02763 776-1124): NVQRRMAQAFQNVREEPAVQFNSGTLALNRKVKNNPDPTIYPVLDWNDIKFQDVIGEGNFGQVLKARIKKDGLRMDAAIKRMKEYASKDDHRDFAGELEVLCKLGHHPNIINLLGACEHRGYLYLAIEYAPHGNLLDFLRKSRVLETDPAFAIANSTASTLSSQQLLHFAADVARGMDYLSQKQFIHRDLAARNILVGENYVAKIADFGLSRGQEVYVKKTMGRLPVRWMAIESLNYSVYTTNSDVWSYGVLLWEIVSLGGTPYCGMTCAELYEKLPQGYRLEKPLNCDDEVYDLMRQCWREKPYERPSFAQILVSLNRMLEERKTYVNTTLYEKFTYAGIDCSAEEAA

Consider `Cc1cc2nc(-c3[nH]nc4c3CCNC4)[nH]c2cc1C` [Chemistry 22], for which the inhibition at 10 µM at human Tie2 turned out to be 24.9%; at human KDR enzyme it was 3.65%.

On to `Cc1cc2nc(-c3[nH]nc4c3CCN(S(=O)(=O)c3ccccc3)C4)[nH]c2cc1C` [Chemistry 23], for which the results for the inhibition at 10 µM at human Tie2 and at human KDR enzyme were 92.5% and 48%, respectively.

Turning to `Cc1cc2nc(-c3[nH]nc4c3CCN(S(=O)(=O)Cc3ccccc3)C4)[nH]c2cc1C` [Chemistry 24], the inhibition at 10 µM at human Tie2 came out at 91.5%; at human KDR enzyme it was 70.8%.

As for `Cc1cc2nc(-c3[nH]nc4c3CCN(S(=O)(=O)c3cccc(Cl)c3Cl)C4)[nH]c2cc1C` [Chemistry 25], the figures for the inhibition at 10 µM on human Tie2 and on human KDR enzyme were 89.1% and 31.9%, respectively.

For the compound `Cc1cc2nc(-c3[nH]nc4c3CCN(S(=O)(=O)c3ccc(Cl)cc3)C4)[nH]c2cc1C` [Chemistry 26], the inhibition at 10 µM stood at 89.1% on human Tie2 and 27.8% on human KDR enzyme.

With `Cc1cc2nc(-c3[nH]nc4c3CCN(S(=O)(=O)CC(F)(F)F)C4)[nH]c2cc1C` [Chemistry 27], the inhibition at 10 µM at human Tie2 is 65.4%; on human KDR enzyme, 22.9%.

Regarding `CCS(=O)(=O)N1CCc2c(n[nH]c2-c2nc3cc(C)c(C)cc3[nH]2)C1` [Chemistry 28], the inhibition at 10 µM amounted to 78.5% at human Tie2 and 16.5% on human KDR enzyme.

For `CCCS(=O)(=O)N1CCc2c(n[nH]c2-c2nc3cc(C)c(C)cc3[nH]2)C1` [Chemistry 29], the inhibition at 10 µM at human Tie2 amounted to 47.5%; on human KDR enzyme, 13.3%.

In the case of `CCCCS(=O)(=O)N1CCc2c(n[nH]c2-c2nc3cc(C)c(C)cc3[nH]2)C1` [Chemistry 30], the inhibition at 10 µM on human Tie2 came to 44.2%; on human KDR enzyme, 15.3%.

Take `Cc1cc2nc(-c3[nH]nc4c3CCN(S(=O)(=O)c3ccccc3Cl)C4)[nH]c2cc1C` [Chemistry 31]: the inhibition at 10 µM on human Tie2 was found to be 93.2%; on human KDR enzyme, 45.7%.

On to `Cc1cc2nc(-c3[nH]nc4c3CCN(S(=O)(=O)c3cccc(Cl)c3)C4)[nH]c2cc1C` [Chemistry 32], for which the inhibition at 10 µM at human Tie2 came to 91.5%; at human KDR enzyme, 46.5%.

Consider `Cc1cc2nc(-c3[nH]nc4c3CCN(S(=O)(=O)Cc3ccc(F)cc3)C4)[nH]c2cc1C` [Chemistry 33], for which the inhibition at 10 µM at human Tie2 is 95.9%; on human KDR enzyme it was 57.7%.

Consider `COc1ccc(S(=O)(=O)N2CCc3c(n[nH]c3-c3nc4cc(C)c(C)cc4[nH]3)C2)cc1` [Chemistry 34], for which the inhibition at 10 µM on human Tie2 was found to be 84.7%; on human KDR enzyme it was 18.1%.

On to `Cc1ccc(S(=O)(=O)N2CCc3c(n[nH]c3-c3nc4cc(C)c(C)cc4[nH]3)C2)cc1` [Chemistry 35], for which the figures for the inhibition at 10 µM on human Tie2 and on human KDR enzyme were 88.8% and 27.4%, respectively.

For the compound `Cc1cc2nc(-c3[nH]nc4c3CCN(S(=O)(=O)c3ccccc3C)C4)[nH]c2cc1C` [Chemistry 36], the inhibition at 10 µM on human Tie2 came out at 90.8%; at human KDR enzyme it was 49.4%.

For the compound `Cc1cccc(S(=O)(=O)N2CCc3c(n[nH]c3-c3nc4cc(C)c(C)cc4[nH]3)C2)c1` [Chemistry 37], the inhibition at 10 µM on human Tie2 came to 88.3%; on human KDR enzyme, 41.2%.

For `COc1cccc(S(=O)(=O)N2CCc3c(n[nH]c3-c3nc4cc(C)c(C)cc4[nH]3)C2)c1` [Chemistry 38], the values for the inhibition at 10 µM on human Tie2 and at human KDR enzyme were 84.6% and 20.9%, respectively.

As for `COc1ccccc1S(=O)(=O)N1CCc2c(-c3nc4cc(C)c(C)cc4[nH]3)n[nH]c2C1` [Chemistry 39], the inhibition at 10 µM was 97.9% at human Tie2 and 30.9% at human KDR enzyme.

As for `Cc1cc2nc(-c3[nH]nc4c3CCN(C(=O)C(C)C)C4)[nH]c2cc1C` [Chemistry 40], the values for the inhibition at 10 µM on human Tie2 and at human KDR enzyme were 83.4% and 14.4%, respectively.

`Cc1cc2nc(-c3[nH]nc4c3CCN(C(=O)c3ccccc3)C4)[nH]c2cc1C` [Chemistry 41]: the inhibition at 10 µM on human Tie2 was found to be 86.3%; at human KDR enzyme it was 72.5%.

For `Cc1cc2nc(-c3[nH]nc4c3CCN(C(=O)c3cccc(Cl)c3Cl)C4)[nH]c2cc1C` [Chemistry 42], the inhibition at 10 µM stood at 97.4% at human Tie2 and 52.6% on human KDR enzyme.

Turning to `Cc1cc2nc(-c3[nH]nc4c3CCN(C(=O)Cc3ccccc3)C4)[nH]c2cc1C` [Chemistry 43], the values for the inhibition at 10 µM at human Tie2 and at human KDR enzyme were 84.4% and 10.9%, respectively.

Turning to `CC(=O)N1CCc2c(n[nH]c2-c2nc3cc(C)c(C)cc3[nH]2)C1` [Chemistry 44], the inhibition at 10 µM at human Tie2 turned out to be 90.8%; at human KDR enzyme, 41.1%.

Consider `Cc1cc2nc(-c3[nH]nc4c3CCN(C(=O)C3CC3)C4)[nH]c2cc1C` [Chemistry 45], for which the inhibition at 10 µM at human Tie2 was 94.1%; at human KDR enzyme, 33.4%.

`Cc1cc2nc(-c3[nH]nc4c3CCN(C(=O)c3ccccc3Cl)C4)[nH]c2cc1C` [Chemistry 46]: the inhibition at 10 µM at human Tie2 stood at 96.7%; on human KDR enzyme, 73%.

As to `Cc1cc2nc(-c3[nH]nc4c3CCN(C(=O)c3cccc(Cl)c3)C4)[nH]c2cc1C` [Chemistry 47], the inhibition at 10 µM came out at 87.7% at human Tie2 and 78.5% on human KDR enzyme.

Take `Cc1cc2nc(-c3[nH]nc4c3CCN(C(=O)c3ccc(Cl)cc3)C4)[nH]c2cc1C` [Chemistry 48]: the inhibition at 10 µM turned out to be 83.8% at human Tie2 and 42% at human KDR enzyme.

With `Cc1cc2nc(-c3[nH]nc4c3CCN(C(=O)CC(C)C)C4)[nH]c2cc1C` [Chemistry 49], the inhibition at 10 µM is 84.8% at human Tie2 and 12.2% on human KDR enzyme.

On to `Cc1cc2nc(-c3[nH]nc4c3CCN(C(=O)CCc3ccccc3)C4)[nH]c2cc1C` [Chemistry 50], for which the inhibition at 10 µM at human Tie2 turned out to be 82.4%; on human KDR enzyme, 74.8%.

As to `C=CCC(=O)N1CCc2c(n[nH]c2-c2nc3cc(C)c(C)cc3[nH]2)C1` [Chemistry 51], the inhibition at 10 µM at human Tie2 amounted to 72.9%; on human KDR enzyme, 38.7%.

With `CCCC(=O)N1CCc2c(n[nH]c2-c2nc3cc(C)c(C)cc3[nH]2)C1` [Chemistry 52], the inhibition at 10 µM worked out at 89.3% at human Tie2 and 29.4% on human KDR enzyme.

`Cc1cc2nc(-c3[nH]nc4c3CCN(C(=O)c3ccco3)C4)[nH]c2cc1C` [Chemistry 53]: the results for the inhibition at 10 µM at human Tie2 and at human KDR enzyme were 92.7% and 74.5%, respectively.

For the compound `Cc1cc2nc(-c3[nH]nc4c3CCN(C(=O)C(C)(C)C)C4)[nH]c2cc1C` [Chemistry 54], the inhibition at 10 µM at human Tie2 is 81.3%; on human KDR enzyme, 11.2%.

On to `Cc1cc2nc(-c3[nH]nc4c3CCN(C(=O)CN(C)C)C4)[nH]c2cc1C` [Chemistry 55], for which the values for the inhibition at 10 µM on human Tie2 and at human KDR enzyme were 65.4% and 15.9%, respectively.

On to `CCCCC(=O)N1CCc2c(n[nH]c2-c2nc3cc(C)c(C)cc3[nH]2)C1` [Chemistry 56], for which the inhibition at 10 µM is 92.5% on human Tie2 and 46.6% at human KDR enzyme.

Regarding `Cc1cc2nc(-c3[nH]nc4c3CCN(C(=O)c3cccs3)C4)[nH]c2cc1C` [Chemistry 57], the figures for the inhibition at 10 µM on human Tie2 and at human KDR enzyme were 94.6% and 75.2%, respectively.

Consider `Cc1cc2nc(-c3[nH]nc4c3CCN(C(=O)c3ccc(S(C)(=O)=O)cc3)C4)[nH]c2cc1C` [Chemistry 58], for which the inhibition at 10 µM at human Tie2 came to 82.3%; on human KDR enzyme, 27.9%.

On to `Cc1cc2nc(-c3[nH]nc4c3CCN(C(=O)Nc3ccccc3)C4)[nH]c2cc1C` [Chemistry 59], for which the inhibition at 10 µM was 33.2% on human Tie2 and 17.6% on human KDR enzyme.
